From patent publication US11623922B2, “Compounds” (INFLAZOME LIMITED, priority 2017, dated 2023) come the findings set out here.

The term IC50 denotes the concentration at which inhibition is half-maximal. The AUC is concentration integrated over time. As usually defined, the clearance is the rate of elimination divided by the concentration. Read a low clearance as inefficient removal. The term half-life denotes the time in which the quantity being followed falls by half.

Data set [1] concerns the target T1, NLRP3 (Homo sapiens, UniProt Q96P20). The data set is described as follows: THP-1 cells pyroptosis assay. The data set is classed as cell-based. Details: Seed THP-1 cells (25,000 cells/well) containing 1.0 μg/ml LPS in 40 μl of RPMI medium; host or cells: THP-1 cells. The conditions noted are these: NLRP3 inhibitory activity, 1.0 μg/ml LPS, nigericin 5 μM, resazurin readout. As for the experimental part:
The cells were routinely passaged and grown to confluency (˜10^6 cells/ml). On the day of the experiment, THP-1 cells were harvested and resuspended into RPMI medium (without FBS). The cells were then counted and viability (>90%) checked by Trypan blue (Sigma #T8154). […] To this diluted cell solution was added LPS (Sigma #L4524) to give a 1 μg/ml Final Assay Concentration (FAC). 40 μl of the final preparation was aliquoted into each well of a 96-well plate. The plate thus prepared was used for compound screening.
The following method step-by-step assay was followed for compound screening. • 1. […] Incubate for 3 hrs at 37° C. in 5% CO2 • 4. Add 5 μl nigericin (Sigma #N7143) (FAC 5 μM) to all wells • 5. Incubate for 1 hr at 37° C. and 5% CO2 • 6. At the end of the incubation period, spin plates at 300×g for 3 mins and remove supernatant • 7. Then add 50 μl of resazurin (Sigma #R7017) (FAC 100 μM resazurin in RPMI medium without FBS) and incubate plates for a further 1-2 hrs at 37° C. and 5% CO2 • 8. […] IC50 data is fitted to a non-linear regression equation (log inhibitor vs response-variable slope 4-parameters)
A general note: The colour change of resazurin is a common sign of viable cells or microbes.

Data set [2] has as its target T1, NLRP3. The data set is described as follows: Human whole blood IL1β release assay. The note with it: NLRP3 inhibitory activity, 1 μg/ml LPS, nigericin 10 μM, IL-1β by AlphaLisa, read-out: HWB IC50. It counts as cell-based. Details: Plate out 80 μl of whole blood containing 1 μg/ml of LPS in 96-well, clear bottom cell culture plate; from tissue; host or cells: human whole blood from healthy donors. As for the experimental part: For systemic delivery, the ability to inhibit NLRP3 when the compounds are present within the bloodstream is of great importance. For this reason, the NLRP3 inhibitory activity of a number of compounds in human whole blood was investigated in accordance with the following protocol.
Human whole blood in Li-heparin tubes was obtained from healthy donors from a volunteer donor panel. • 1. […] Incubate for 3 hrs at 37° C., 5% CO2 • 4. Add 10 μl nigericin (Sigma #N7143) (10 μM FAC) to all wells • 5. Incubate for 1 hr at 37° C., 5% CO2 • 6. At the end of the incubation period, spin plates at 300×g for 5 mins to pellet cells and remove 20 μl of supernatant and add to 96-well v-bottom plates for IL-1β analysis (note: these plates containing the supernatants can be stored at −80° C. to be analysed at a later date) • 7. IL-1β was measured according to the manufacturer protocol (Perkin Elmer-AlphaLisa IL-1 Kit AL220F-5000) • 8. IC50 data is fitted to a non-linear regression equation (log inhibitor vs response-variable slope 4-parameters)
(Alpha assays give light when donor and acceptor beads are brought close together.)

Data set [3] in a line: PK protocol, intravenous administration in rats. The conditions noted are these: rat, 1 mg/kg, male Sprague Dawley rats, plasma; for Vd: read-out: Vdss. The data set is classed as in vivo. The method, then: Pharmacokinetic parameters were determined in male Sprague Dawley rats (Vital River Laboratory Animal Technology Co Ltd, Beijing, China, 7-9 weeks old). Animals were individually housed during the study and maintained under a 12 h light/dark cycle. Animals had free access to food and water.
For intravenous administration, compounds were formulated as a solution in DMSO:PBS [10:90] in 2 mL/kg dosing volume and administered via tail vein.
Serial blood samples (about 200 μL) were taken from each animal at each of 8 time-points post dose (0.083, 0.25, 0.5, 1, 2, 4, 8 and 24 h). Samples were held on ice for no longer than 30 minutes before centrifugation (5,696 rpm (3,000 g) for 15 minutes) for plasma generation. Plasma was frozen on dry ice prior to bioanalysis. PK parameters were generated from LC-MS/MS data using Phoenix WinNonlin 6.3 software.

A value given as a limit tells only on which side of the number the result lay.

T1 sequence (Q96P20 whole entry): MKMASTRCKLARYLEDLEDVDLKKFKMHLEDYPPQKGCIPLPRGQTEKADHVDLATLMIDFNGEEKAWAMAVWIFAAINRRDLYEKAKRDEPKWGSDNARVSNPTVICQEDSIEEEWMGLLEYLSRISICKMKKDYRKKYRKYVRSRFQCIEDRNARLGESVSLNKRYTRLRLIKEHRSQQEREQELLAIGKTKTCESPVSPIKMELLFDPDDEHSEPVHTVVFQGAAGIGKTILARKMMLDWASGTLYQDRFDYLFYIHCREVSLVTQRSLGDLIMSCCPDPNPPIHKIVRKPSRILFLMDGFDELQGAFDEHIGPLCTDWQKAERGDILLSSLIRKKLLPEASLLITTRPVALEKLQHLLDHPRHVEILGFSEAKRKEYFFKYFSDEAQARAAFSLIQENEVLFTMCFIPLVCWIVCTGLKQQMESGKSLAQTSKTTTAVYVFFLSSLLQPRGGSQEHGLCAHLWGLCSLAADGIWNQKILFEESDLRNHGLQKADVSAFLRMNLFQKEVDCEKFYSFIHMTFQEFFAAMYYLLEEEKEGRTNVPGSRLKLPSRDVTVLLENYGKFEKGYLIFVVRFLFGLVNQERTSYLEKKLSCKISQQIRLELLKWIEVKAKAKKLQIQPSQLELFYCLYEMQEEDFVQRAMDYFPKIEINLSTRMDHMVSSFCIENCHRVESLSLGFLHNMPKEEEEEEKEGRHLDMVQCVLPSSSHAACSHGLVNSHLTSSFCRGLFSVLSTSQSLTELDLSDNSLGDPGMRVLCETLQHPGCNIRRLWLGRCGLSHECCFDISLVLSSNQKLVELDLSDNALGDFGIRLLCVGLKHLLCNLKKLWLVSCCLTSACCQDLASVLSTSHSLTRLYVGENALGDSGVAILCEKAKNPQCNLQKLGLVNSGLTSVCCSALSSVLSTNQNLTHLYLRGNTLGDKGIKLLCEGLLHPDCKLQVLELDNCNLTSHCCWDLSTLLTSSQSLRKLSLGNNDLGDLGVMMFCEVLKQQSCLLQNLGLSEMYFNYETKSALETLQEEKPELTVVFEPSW

With “5-(Azetidin-1-ylmethyl)-N-((4-fluoro-2,6-diisopropylphenyl) carbamoyl)-1-methyl-1H-pyrazole-3-sulfonimidamide [Example 23]”, the IC50 was less than 100 nM in data set [1] and less than 5000 nM in data set [2].

For `COc1cc(-c2ccc3c(c2NC(=O)NS(=N)(=O)c2ccn(C(C)C)n2)CCC3)ccn1` (racemic) [Example 14, 1-Isopropyl-N-((5-(2-methoxypyridin-4-yl)-2,3-dihydro-1H-inden-4-yl)carbamoyl)-1H-pyrazole-3-sulfonimidamide], in data set [3], the AUC stood at 1740 ng·h/mL, the clearance was 9.6 mL/min/kg, the half-life is 0.9 h and the Vd is 0.34 L/kg. This compound also came in with a concentration for half-maximal inhibition (IC50) in data set [1] of less than 100 nM. The IC50 in data set [2] is less than 500 nM.

Regarding `CC(C)n1cc(Cl)c(S(=N)(=O)NC(=O)Nc2c3c(cc4c2CCC4)CCC3)n1` (centres unmarked) [Example 2, 4-Chloro-N-((1,2,3,5,6,7-hexahydro-s-indacen-4-yl)carbamoyl)-1-iso-propyl-1H-pyrazole-3-sulfonimidamide], the IC50 in data set [1] was less than 100 nM; in data set [2] it was less than 5000 nM.

Regarding `C[C@@H](O)Cn1ccc(S(=N)(=O)NC(=O)Nc2c3c(cc4c2CCC4)CCC3)n1` (stereo partly drawn) [Example 3, N-((1,2,3,5,6,7-Hexahydro-s-indacen-4-yl)carbamoyl)-1-((R)-2-hydroxypropyl)-1H-pyrazole-3-sulfonimidamide], in data set [3], the AUC came out at 2250 ng·h/mL, the clearance came out at 7.4 mL/min/kg, the half-life is 2.7 h and the Vd is 0.75 L/kg. The compound also yielded a 50% inhibitory concentration (IC50) in data set [1] of less than 100 nM. Moreover, the half-maximal inhibitory concentration (IC50) in data set [2] is less than 500 nM.

`CCN(CC)CCCS(=N)(=O)NC(=O)Nc1c2c(cc3c1CCC3)CCC2` (centres unmarked) [Example 6, 3-(Diethylamino)-N-((1,2,3,5,6,7-hexahydro-s-indacen-4-yl)carbamoyl) propane-1-sulfonimidamide] yielded a half-maximal inhibitory concentration (IC50) in data set [1] of less than 10000 nM.

As to `CC(C)N1CC(S(=N)(=O)NC(=O)Nc2c3c(cc4c2CCC4)CCC3)C1` (centres unmarked) [Example 7, N-((1,2,3,5,6,7-Hexahydro-s-indacen-4-yl)carbamoyl)-1-isopropyl-azetidine-3-sulfonimidamide], the half-inhibitory concentration (IC50) in data set [1] and in data set [2] was less than 5000 nM each time.

With `CN(C)CCn1ccc(S(=N)(=O)NC(=O)Nc2c3c(cc4c2CCC4)CCC3)n1` (centres unmarked) [Example 10, 1-(2-(Dimethylamino)ethyl)-N-((1,2,3,5,6,7-hexahydro-s-indacen-4-yl)carbamoyl)-1H-pyrazole-3-sulfonimidamide], the IC50 in data set [1] and in data set [2] was less than 500 nM throughout.

`CC(C)c1cc(F)cc(-c2ccnc(C#N)c2)c1NC(=O)NS(=N)(=O)c1nn(C(C)C)cc1Cl` (centres unmarked) [Example 12, 4-Chloro-N-((2-(2-cyanopyridin-4-yl)-4-fluoro-6-isopropylphenyl)carbamoyl)-1-isopropyl-1H-pyrazole-3-sulfonimidamide]: the figures for the 50% inhibitory concentration (IC50) in data set [1] and in data set [2] were less than 100 nM and less than 500 nM, respectively.

Consider `COc1cc(-c2cc(F)cc(C(C)C)c2NC(=O)NS(=N)(=O)c2nn(C(C)C)cc2Cl)ccn1` (centres unmarked) [Example 13, 4-Chloro-N-((4-fluoro-2-isopropyl-6-(2-methoxypyridin-4-yl)phenyl)carbamoyl)-1-isopropyl-1H-pyrazole-3-sulfonimidamide], for which the IC50 in data set [1] is less than 100 nM; in data set [2], less than 1000 nM.

`CC(C)c1cc(F)cc(-c2ccnc(C#N)c2)c1NC(=O)NS(=N)(=O)c1ccn(C(C)C)n1` (centres unmarked) [Example 15, N-((2-(2-Cyanopyridin-4-yl)-4-fluoro-6-isopropylphenyl)carbamoyl)-1-isopropyl-1H-pyrazole-3-sulfonimidamide]: the IC50 in data set [1] and in data set [2] was less than 1000 nM each time.

For the compound `COc1cc(-c2cc(F)cc(C(C)C)c2NC(=O)NS(=N)(=O)c2ccn(C(C)C)n2)ccn1` (centres unmarked) [Example 16, N-((4-Fluoro-2-isopropyl-6-(2-methoxypyridin-4-yl)phenyl)carbamoyl)-1-isopropyl-1H-pyrazole-3-sulfonimidamide], the IC50 was less than 100 nM in data set [1] and less than 1000 nM in data set [2].

As to `COc1cc(-c2ccc3c(c2NC(=O)NS(=N)(=O)c2ccn(C[C@@H](C)O)n2)CCC3)ccn1` (stereo partly drawn) [Example 17, 1-((R)-2-Hydroxypropyl)-N-((5-(2-methoxypyridin-4-yl)-2,3-dihydro-1H-inden-4-yl)carbamoyl)-1H-pyrazole-3-sulfonimidamide], the IC50 in data set [1] is less than 100 nM; in data set [2], less than 500 nM.

Consider `COc1cc(-c2cc(F)cc(C(C)C)c2NC(=O)NS(=N)(=O)c2ccn(C[C@@H](C)O)n2)ccn1` (stereo partly drawn) [Example 19, N-((4-Fluoro-2-isopropyl-6-(2-methoxypyridin-4-yl)phenyl)carbamoyl)-1-((R)-2-hydroxypropyl)-1H-pyrazole-3-sulfonimidamide], for which the concentration for half-maximal inhibition (IC50) was less than 100 nM in data set [1] and less than 1000 nM in data set [2].

Take `CC(c1cc(S(=N)(=O)NC(=O)Nc2c3c(cc4c2CCC4)CCC3)nn1C)N1CCC1` (centres unmarked) [Example 22, 5-(1-(Azetidin-1-yl)ethyl)-N-((1,2,3,5,6,7-hexahydro-s-indacen-4-yl)carbamoyl)-1-methyl-1H-pyrazole-3-sulfonimidamide]: the 50% inhibitory concentration (IC50) in data set [1] is less than 100 nM; in data set [2] it was less than 500 nM.

Turning to `CC(C)n1ccc(S(=N)(=O)NC(=O)Nc2c(-c3ccncc3)cc(F)c3c2CCC3)n1` (centres unmarked) [Example 24, N-((7-Fluoro-5-(pyridin-4-yl)-2,3-dihydro-1H-inden-4-yl)carbamoyl)-1-isopropyl-1H-pyrazole-3-sulfonimidamide], the IC50 was less than 100 nM in data set [1] and less than 500 nM in data set [2].

With `C[C@@H](O)Cn1ccc(S(=N)(=O)NC(=O)Nc2c(-c3ccncc3)cc(F)c3c2CCC3)n1` (stereo partly drawn) [Example 25, N-((7-Fluoro-5-(pyridin-4-yl)-2,3-dihydro-1H-inden-4-yl)carbamoyl)-1-((R)-2-hydroxypropyl)-1H-pyrazole-3-sulfonimidamide], the IC50 is less than 100 nM in data set [1] and less than 500 nM in data set [2].

Consider `CC(C)n1cc(Cl)c(S(=N)(=O)NC(=O)Nc2c(-c3ccncc3)cc(F)c3c2CCC3)n1` (centres unmarked) [Example 26, 4-Chloro-N-((7-fluoro-5-(pyridin-4-yl)-2,3-dihydro-1H-inden-4-yl)carbamoyl)-1-isopropyl-1H-pyrazole-3-sulfonimidamide], for which the IC50 in data set [1] is less than 100 nM; in data set [2], less than 500 nM.

Regarding `COc1cc(-c2ccc3c(c2NC(=O)N[S@@](=N)(=O)c2ccn(C(C)C)n2)CCC3)ccn1` [Example 27, (R)-1-Isopropyl-N-((5-(2-methoxypyridin-4-yl)-2,3-dihydro-1H-inden-4-yl)carbamoyl)-1H-pyrazole-3-sulfonimidamide], the IC50 in data set [1] was less than 100 nM; in data set [2] it was less than 500 nM.

On to `COc1cc(-c2ccc3c(c2NC(=O)N[S@](=N)(=O)c2ccn(C(C)C)n2)CCC3)ccn1` [Example 28, (S)-1-Isopropyl-N-((5-(2-methoxypyridin-4-yl)-2,3-dihydro-1H-inden-4-yl)carbamoyl)-1H-pyrazole-3-sulfonimidamide], for which the values for the half-inhibitory concentration (IC50) in data set [1] and in data set [2] were less than 1000 nM and less than 5000 nM, respectively.

For the compound “N-((2-(2-Cyanopyridin-4-yl)-4-fluoro-6-isopropylphenyl)carbamoyl)-1-((R)-2-hydroxypropyl)-1H-pyrazole-3-sulfonimidamide [Example 18]”, the IC50 in data set [1] and in data set [2] was less than 500 nM throughout.
